Test results as given in ChEMBL document CHEMBL5705887, “Distinct concentration-dependent effects of the polo-like kinase 1-specific inhibitor GSK461364A, including differential effect on apoptosis” (Cancer Res, 2009).
Activity calls are given as the source filed them. The calls are words filed in the database; no cut-off is given here.

How the values were obtained:
OVCAR-4 = experiment: Antiproliferative activity against human OVCAR-4 cells assessed as viable cell signal at maximum growth inhibition incubated for 72 hrs by celltiter-glo assay relative to control; format: functional
SK-OV-3 = experiment: Antiproliferative activity against human SK-OV-3 cells assessed as of viable cell signal at minimum maximum cell growth incubated for 72 hrs by celltiter-glo assay relative to control; format: functional
BXPC-3 = experiment: Antiproliferative activity against human BXPC-3 cells assessed as growth inhibition incubated for 72 hrs by celltiter-glo assay; format: functional
SK-MEL3 = experiment: Antiproliferative activity against human SK-MEL3 cells assessed as growth inhibition incubated for 72 hrs by celltiter-glo assay; format: functional
A549 [1] = experiment: Induction of mitotic arrest in human A549 cells assessed as disordered spindle formation at 20 nmol/L incubated for 16 hrs by alpha-tubulin/DAPI staining based confocal microscopic analysis; format: functional, cell-based
MDA-MB-231 = experiment: Antiproliferative activity against human MDA-MB-231 cells assessed as viable cell signal at maximum growth inhibition incubated for 72 hrs by celltiter-glo assay relative to control; format: functional
A549 [2] = experiment: Antiproliferative activity against human A549 cells assessed as growth inhibition incubated for 72 hrs by celltiter-glo assay; format: functional
PC-3 = experiment: Antiproliferative activity against human PC-3 cells assessed as viable cell signal at maximum growth inhibition incubated for 72 hrs by celltiter-glo assay relative to control; format: functional
NCI-H460 = experiment: Antiproliferative activity against human NCI-H460 cells assessed as growth inhibition incubated for 72 hrs by celltiter-glo assay; format: functional
DLD-1 = experiment: Antiproliferative activity against human DLD-1 cells assessed as of viable cell signal at minimum maximum cell growth incubated for 72 hrs by celltiter-glo assay relative to control; format: functional
A549 [3] = experiment: Induction of mitotic arrest in human A549 cells assessed as disordered spindle formation at 313 nmol/L incubated for 16 hrs by alpha-tubulin/DAPI staining based confocal microscopic analysis; format: functional, cell-based
HCT-15 [4] = experiment: Antiproliferative activity against human HCT-15 cells assessed as of viable cell signal at minimum maximum cell growth incubated for 72 hrs by celltiter-glo assay relative to control; format: functional
A549 [5] = experiment: Antimitotic activity against human A549 cells assessed as cell cycle block in G2-M phase measuring by accumulation of 4N DNA content at 10 nmol/L incubated for 24 hrs by PI staining based flow cytometric analysis; format: functional
MDA-MB-468 = experiment: Induction of mitotic arrest in human MDA-MB-468 cells assessed as effect on pHH3 level at 10 to 250 nmol/L incubated for 19 hrs by ELISA analysis; format: functional, cell-based; settings: dose 10-250 nmol/L
BT-474 = experiment: Antiproliferative activity against human BT-474 cells assessed as growth inhibition incubated for 72 hrs by celltiter-glo assay; format: functional
NCI-N87 = experiment: Antiproliferative activity against human NCI-N87 cells assessed as growth inhibition incubated for 72 hrs by celltiter-glo assay; format: functional
ZR-75-1 = experiment: Growth inhibition of human ZR-75-1 cells assessed as caspase-3/caspase-7 activation at 0.1 nmol/L incubated for 5 to 7 days by […]; format: functional, cell-based; settings: time 5-7 day
HCT-15 [6] = experiment: Antiproliferative activity against human HCT-15 cells assessed as growth inhibition incubated for 72 hrs by celltiter-glo assay; format: functional
BT-549 [7] = experiment: Antiproliferative activity against human BT-549 cells assessed as of viable cell signal at minimum maximum cell growth incubated for 72 hrs by celltiter-glo assay relative to control; format: functional
SK-MEL-2 = experiment: Antiproliferative activity against human SK-MEL-2 cells assessed as viable cell signal at maximum growth inhibition incubated for 72 hrs by celltiter-glo assay relative to control; format: functional
NCI-H358 = experiment: Antiproliferative activity against human NCI-H358 cells assessed as viable cell signal at maximum growth inhibition incubated for 72 hrs by celltiter-glo assay relative to control; format: functional
COLO 205 [8] = experiment: Antiproliferative activity against human COLO 205 cells assessed as viable cell signal at maximum growth inhibition incubated for 72 hrs by celltiter-glo assay relative to control; format: functional
ASPC1 = experiment: Antiproliferative activity against human ASPC1 cells assessed as viable cell signal at maximum growth inhibition incubated for 72 hrs by celltiter-glo assay relative to control; format: functional
A-431 = experiment: Antiproliferative activity against human A-431 cells assessed as growth inhibition incubated for 72 hrs by celltiter-glo assay; format: functional
BT-549 [9] = experiment: Antiproliferative activity against human BT-549 cells assessed as viable cell signal at maximum growth inhibition incubated for 72 hrs by celltiter-glo assay relative to control; format: functional
[10] = Antiproliferative activity against human PL45 cells assessed as growth inhibition incubated for 72 hrs by celltiter-glo assay; format: functional
COLO 205 [11] = experiment: Antitumor activity against human COLO 205 cells xenografted in Nude mouse assessed as tumor growth delay time at 100 mg/kg, ip administered every 2 to 4 days; format: functional; settings: time 2-4 day
DU-145 = experiment: Antiproliferative activity against human DU-145 cells assessed as growth inhibition incubated for 72 hrs by celltiter-glo assay; format: functional
A2780 = experiment: Antiproliferative activity against human A2780 cells assessed as growth inhibition incubated for 72 hrs by celltiter-glo assay; format: functional
COLO 205 [12] = experiment: Antitumor activity against human COLO 205 cells xenografted in Nude mouse assessed as tumor regression at 50 mg/kg, ip administered for 12 days; format: functional, organism-based; settings: time 12.0 day
Hep 3B2 = experiment: Antiproliferative activity against human Hep3B cells assessed as of viable cell signal at minimum maximum cell growth incubated for 72 hrs by celltiter-glo assay relative to control; format: functional
MIA PaCa-2 [13] = experiment: Antiproliferative activity against human MIA PaCa-2 cells assessed as growth inhibition incubated for 72 hrs by celltiter-glo assay; format: functional
NCI-H157 = experiment: Antiproliferative activity against human NCI-H157 cells assessed as viable cell signal at maximum growth inhibition incubated for 72 hrs by celltiter-glo assay relative to control; format: functional
LNCaP = experiment: Antiproliferative activity against human LNCaP cells assessed as of viable cell signal at minimum maximum cell growth incubated for 72 hrs by celltiter-glo assay relative to control; format: functional
A498 = experiment: Antiproliferative activity against human A498 cells assessed as growth inhibition incubated for 72 hrs by celltiter-glo assay; format: functional
A704 = experiment: Antiproliferative activity against human A704 cells assessed as of viable cell signal at minimum maximum cell growth incubated for 72 hrs by celltiter-glo assay relative to control; format: functional
HT-29 = experiment: Induction of mitotic arrest in human HT-29 cells assessed as effect on pHH3 level at 10 to 250 nmol/L incubated for 19 hrs by ELISA analysis; format: functional, cell-based; settings: dose 10-250 nmol/L
MIA PaCa-2 [14] = experiment: Antiproliferative activity against human MIA PaCa-2 cells assessed as viable cell signal at maximum growth inhibition incubated for 72 hrs by celltiter-glo assay relative to control; format: functional
[15] = system: Platelet-derived growth factor receptor alpha (Homo sapiens), P16234 [V561D]; experiment: Inhibition of N-terminal his6-tagged recombinant human PDGFRA V561D mutant at 10 uM relative to control
Chain of Platelet-derived growth factor receptor alpha (Homo sapiens), P16234 [V561D] (P16234 whole entry V561D): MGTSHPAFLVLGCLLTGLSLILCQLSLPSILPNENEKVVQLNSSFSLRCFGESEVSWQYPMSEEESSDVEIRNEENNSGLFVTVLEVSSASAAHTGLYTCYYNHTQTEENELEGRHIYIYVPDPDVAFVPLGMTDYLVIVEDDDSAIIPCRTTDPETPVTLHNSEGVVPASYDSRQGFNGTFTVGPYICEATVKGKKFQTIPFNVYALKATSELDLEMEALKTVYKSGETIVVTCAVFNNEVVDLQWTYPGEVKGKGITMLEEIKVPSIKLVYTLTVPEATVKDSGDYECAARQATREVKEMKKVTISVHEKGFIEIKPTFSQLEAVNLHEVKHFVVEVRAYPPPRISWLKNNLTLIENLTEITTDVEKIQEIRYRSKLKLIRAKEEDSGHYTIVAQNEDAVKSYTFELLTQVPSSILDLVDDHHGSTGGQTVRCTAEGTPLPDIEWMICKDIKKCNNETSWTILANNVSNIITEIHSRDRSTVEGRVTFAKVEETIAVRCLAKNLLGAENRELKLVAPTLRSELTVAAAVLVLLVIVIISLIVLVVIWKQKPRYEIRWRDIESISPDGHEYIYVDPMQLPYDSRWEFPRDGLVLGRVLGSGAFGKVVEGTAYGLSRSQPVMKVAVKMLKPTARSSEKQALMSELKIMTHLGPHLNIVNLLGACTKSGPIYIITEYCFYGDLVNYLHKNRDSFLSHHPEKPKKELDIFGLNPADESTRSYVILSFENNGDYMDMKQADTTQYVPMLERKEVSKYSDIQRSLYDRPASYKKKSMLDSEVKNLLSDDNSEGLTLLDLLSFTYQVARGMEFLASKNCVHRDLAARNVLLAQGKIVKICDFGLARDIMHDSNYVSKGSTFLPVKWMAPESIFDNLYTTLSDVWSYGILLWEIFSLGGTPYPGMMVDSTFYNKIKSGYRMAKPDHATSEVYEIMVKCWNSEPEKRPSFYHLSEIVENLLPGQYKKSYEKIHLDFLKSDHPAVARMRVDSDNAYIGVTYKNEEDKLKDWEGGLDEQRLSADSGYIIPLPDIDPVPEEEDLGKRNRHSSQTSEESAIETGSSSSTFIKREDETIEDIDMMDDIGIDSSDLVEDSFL

BT-549 [16] = experiment: Antiproliferative activity against human BT-549 cells assessed as growth inhibition incubated for 72 hrs by celltiter-glo assay; format: functional

## C[C@@H](Oc1cc(-n2cnc3ccc(CN4CCN(C)CC4)cc32)sc1C(N)=O)c1ccccc1C(F)(F)F [GSK-461364]
OVCAR-4
  Emax: 342%
SK-OV-3
  Emin: 103.8%
BXPC-3
  GI50: 23.1 nM
SK-MEL3
  GI50: 17.6 nM
A549 [1]
  Activity: Active
MDA-MB-231
  Emax: 520%
A549 [2]
  GI50: 34 nM
PC-3
  Emax: 582%
NCI-H460
  GI50: 37.8 nM
DLD-1
  Emin: 441.3%
A549 [3]
  Activity: Active
HCT-15 [4]
  Emin: 75%
A549 [5]
  Activity: Active
MDA-MB-468
  Activity: Active
BT-474
  GI50: 7090 nM
NCI-N87
  GI50: 21.5 nM
ZR-75-1
  Activity: Active
HCT-15 [6]
  GI50: 90.8 nM
BT-549 [7]
  Emin: 77.2%
SK-MEL-2
  Emax: 422%
NCI-H358
  Emax: 308%
COLO 205 [8]
  Emax: 616%
ASPC1
  Emax: 294%
A-431
  GI50: 16.6 nM
BT-549 [9]
  Emax: 265%
[10]
  GI50: 21.9 nM
COLO 205 [11]
  Time: 18 days
DU-145
  GI50: 24.2 nM
A2780
  GI50: 28.1 nM
COLO 205 [12]
  Activity: Active
Hep 3B2
  Emin: 132.1%
MIA PaCa-2 [13]
  GI50: 39.9 nM
NCI-H157
  Emax: 847%
LNCaP
  Emin: 99.3%
A498
  GI50: 40.4 nM
A704
  Emin: 3.2%
HT-29
  Activity: Active
MIA PaCa-2 [14]
  Emax: 580%
[15]
  inhibition: 96%
BT-549 [16]
  GI50: 23.1 nM
